From patent publication US7034036B2, “Inhibitors of ABC drug transporters at the blood-brain barrier” (Pain Therapeutics, Inc., priority 2000, dated 2006)

Experiments:
[1] = tested on: mice; experiment: Tail flick anti-nociception, naltrexone given with morphine from day 1 (Groups C, D, combined analysis); format: in vivo; set-up: Enhancement of Latency (tail flick) / Enhancement of Latency by Naltrexone (tail flick): unit not given here
Procedure: In a third series of experiments, 40 male mice were randomized into 5 groups of eight. All mice were administered single 3 mg/kg morphine daily (b.i.d.), beginning on Day 1.
In a final series of experiments, 40 female mice were randomized into 5 groups of eight. All mice were administered single 3 mg/kg morphine daily (b.i.d.), beginning on Day 1.

[2] = tested on: mice; experiment: Tolerance to oxycodone in mice, parallel experiments; format: in vivo

In the case of `O=C1CC[C@@]2(O)[C@H]3Cc4ccc(O)c5c4[C@@]2(CCN3CC2CC2)[C@H]1O5` [Naltrexone, naltrexone], the “Enhancement of Latency by Naltrexone (tail flick)” value (“Enhancement … (tail flick)” below) ([1]; female mice, Group 4: morphine 3 mg/kg + naltrexone 300 ng/kg b.i.d. from day 1, Day 7) is reported as 0.2, the “Enhancement … (tail flick)” value ([1]; female mice, Group 4: morphine 3 mg/kg + naltrexone 300 ng/kg b.i.d. from day 1, Day 10) is reported as 5.9 and the “Enhancement … (tail flick)” value ([1]; female mice, Group 4: morphine 3 mg/kg + naltrexone 300 ng/kg b.i.d. from day 1, Day 11, single bolus 10 μg/kg naltrexone in addition) is reported as 0.8. The “Enhancement … (tail flick)” value ([1]; female mice, Group 5: morphine 3 mg/kg + naltrexone 3000 ng/kg b.i.d. from day 1, Day 1) was 12.3, the “Enhancement … (tail flick)” value ([1]; female mice, Group 5: morphine 3 mg/kg + naltrexone 3000 ng/kg b.i.d. from day 1, Day 3) was 9.6 and the “Enhancement … (tail flick)” value ([1]; female mice, Group 5: morphine 3 mg/kg + naltrexone 3000 ng/kg b.i.d. from day 1, Day 5) was 3.4. For the same compound, the “Enhancement … (tail flick)” value ([1]; female mice, Group 5: morphine 3 mg/kg + naltrexone 3000 ng/kg b.i.d. from day 1, Day 7) was 1.9, the “Enhancement … (tail flick)” value ([1]; female mice, Group 5: morphine 3 mg/kg + naltrexone 3000 ng/kg b.i.d. from day 1, Day 10) was 6.7 and the “Enhancement … (tail flick)” value ([1]; female mice, Group 5: morphine 3 mg/kg + naltrexone 3000 ng/kg b.i.d. from day 1, Day 11, single bolus 10 μg/kg naltrexone in addition) was −0.7. The “Latency versus other doses” value ([1]; female mice, dose 0.3 ng/kg as printed, not significantly different from 0.03 or 3 ng/kg) was “gave the longest latency”, the “Latency versus other concentrations” value ([1]; male mice, Groups A and C combined, days 8 and 10, naltrexone at 300 ng) was “gave the greatest latency” and the “Enhancement … (tail flick)” value ([1]; male mice, Group 2: morphine 3 mg/kg + naltrexone 3 ng/kg b.i.d. from day 1, Day 1) was 13.3. For the same compound, the “Enhancement … (tail flick)” value ([1]; male mice, Group 2: morphine 3 mg/kg + naltrexone 3 ng/kg b.i.d. from day 1, Day 3) was 7.5, the “Enhancement … (tail flick)” value ([1]; male mice, Group 2: morphine 3 mg/kg + naltrexone 3 ng/kg b.i.d. from day 1, Day 5) was 4.5 and the “Enhancement … (tail flick)” value ([1]; male mice, Group 2: morphine 3 mg/kg + naltrexone 3 ng/kg b.i.d. from day 1, Day 8) was 5.5. For the same compound, the “Enhancement … (tail flick)” value ([1]; male mice, Group 2: morphine 3 mg/kg + naltrexone 3 ng/kg b.i.d. from day 1, Day 10) was 2.7, the “Enhancement … (tail flick)” value ([1]; male mice, Group 2: morphine 3 mg/kg + naltrexone 3 ng/kg b.i.d. from day 1, Day 12, single bolus 10 μg/kg naltrexone to every mouse) was 1.1 and the “Enhancement … (tail flick)” value ([1]; male mice, Group 3: morphine 3 mg/kg + naltrexone 30 ng/kg b.i.d. from day 1, Day 1) was 12.4. The “Enhancement … (tail flick)” value ([1]; male mice, Group 3: morphine 3 mg/kg + naltrexone 30 ng/kg b.i.d. from day 1, Day 3) was 9.3, the “Enhancement … (tail flick)” value ([1]; male mice, Group 3: morphine 3 mg/kg + naltrexone 30 ng/kg b.i.d. from day 1, Day 5) was 7.5 and the “Enhancement … (tail flick)” value ([1]; male mice, Group 3: morphine 3 mg/kg + naltrexone 30 ng/kg b.i.d. from day 1, Day 8) was 7.1. For the same compound, the “Enhancement … (tail flick)” value ([1]; male mice, Group 3: morphine 3 mg/kg + naltrexone 30 ng/kg b.i.d. from day 1, Day 10) was 3.2, the “Enhancement … (tail flick)” value ([1]; male mice, Group 3: morphine 3 mg/kg + naltrexone 30 ng/kg b.i.d. from day 1, Day 12, single bolus 10 μg/kg naltrexone to every mouse) was −0.8 and the “Enhancement … (tail flick)” value ([1]; male mice, Group 4: morphine 3 mg/kg + naltrexone 300 ng/kg b.i.d. from day 1, Day 1) was 16.3. The “Enhancement … (tail flick)” value ([1]; male mice, Group 4: morphine 3 mg/kg + naltrexone 300 ng/kg b.i.d. from day 1, Day 3) was 17.1, the “Enhancement … (tail flick)” value ([1]; male mice, Group 4: morphine 3 mg/kg + naltrexone 300 ng/kg b.i.d. from day 1, Day 5) was 11.8 and the “Enhancement … (tail flick)” value ([1]; male mice, Group 4: morphine 3 mg/kg + naltrexone 300 ng/kg b.i.d. from day 1, Day 8) was 9.4. The “Enhancement … (tail flick)” value ([1]; male mice, Group 4: morphine 3 mg/kg + naltrexone 300 ng/kg b.i.d. from day 1, Day 10) was 6.1, the “Enhancement … (tail flick)” value ([1]; male mice, Group 4: morphine 3 mg/kg + naltrexone 300 ng/kg b.i.d. from day 1, Day 12, single bolus 10 μg/kg naltrexone to every mouse) was −0.2 and the “Enhancement … (tail flick)” value ([1]; male mice, Group 5: morphine 3 mg/kg + naltrexone 3000 ng/kg b.i.d. from day 1, Day 1) was 13.5. The “Enhancement … (tail flick)” value ([1]; male mice, Group 5: morphine 3 mg/kg + naltrexone 3000 ng/kg b.i.d. from day 1, Day 3) was 13.0, the “Enhancement … (tail flick)” value ([1]; male mice, Group 5: morphine 3 mg/kg + naltrexone 3000 ng/kg b.i.d. from day 1, Day 5) was 12.0 and the “Enhancement … (tail flick)” value ([1]; male mice, Group 5: morphine 3 mg/kg + naltrexone 3000 ng/kg b.i.d. from day 1, Day 8) was 10.4. The “Enhancement … (tail flick)” value ([1]; male mice, Group 5: morphine 3 mg/kg + naltrexone 3000 ng/kg b.i.d. from day 1, Day 10) was 7.4, the “Enhancement … (tail flick)” value ([1]; male mice, Group 5: morphine 3 mg/kg + naltrexone 3000 ng/kg b.i.d. from day 1, Day 12, single bolus 10 μg/kg naltrexone to every mouse) was −0.7 and the “Enhancement of latency versus other concentrations” value ([1]; male mice, naltrexone at 300 ng with morphine 3 mg/kg from day 1, Days 1, 3, 5, 8, 10) was “significantly greater”. The “Latency versus other concentrations” value ([1]; males and females combined, naltrexone 30 ng/kg and 300 ng/kg, days 1, 3, 5, 6, 8, 10) was “significantly longer latency”, the “Development of tolerance to morphine” value ([1]; naltrexone in combination with morphine) was “prevents the mice from developing a tolerance to morphine” and the “Development of tolerance to oxycodone” value ([2]; female mice, 1 or 5 mg/kg oxycodone with 1 pg/kg, 1 ng/kg or 1 μg/kg naltrexone or 1 pg/kg nor-BNI) was “None of the mice developed tolerance”. For the same compound, the “Development of tolerance to oxycodone” value ([2]; male mice, 0.1 mg/kg oxycodone plus 1 ng/kg naltrexone, 1 ng/kg nalmefene or 1 pg/kg nor-BNI) was “did not develop tolerance”.
